Reference: US8273769B2, “Phenoxy acetic acid derivatives” (Merck Serono SA, priority 2009, dated 2012)

How the values were obtained:
[1] = system: OVA-induced lung eosinophilia in mice; assay: OVA-induced lung eosinophilia in mice; format: in vivo, BALB/c mice; conditions: BAL fluid, dose 1 mg/kg
Method: BALB/c mice (6-8 weeks old) were immunized with ovalbumin (10 μg i.p) on day 0 and 7. In order to elicit a local inflammatory response in the lung, mice were challenged between day's 15-17 with a nebulised solution of ovalbumin (10 μg/ml; De Vilibiss Ultraneb 2000, once daily for 30 min during the 3 days). On each separate day between 15 and 17 each animal received via oral gavage the test compound, at t−1 h and t+7 h with respect to OVA exposure at t=0 h. Eight hours after the final OVA challenge, bronchoalveolar lavage (BAL) was then carried out. Total cell numbers in the BAL fluid samples were measured using a haemocytometer. Cytospin smears of the BAL fluid samples were prepared by centrifugation at 1200 rpm for 2 min at room temperature and stained using a DiffQuik stain system (Dade Behring) for differential cell counts. […]

[2] = system: eosinophils in human whole blood; assay: PGD2-induced eosinophil cell shape assay in human whole blood; format: cell-based; conditions: 10 nM PGD2 final, flow cytometry
Method: The Compounds of Formula (I) were diluted in dimethylsulphoxide so that the total volume of dimethylsulfoxide was kept constant at 2% dimethylsulphoxide (Me2SO). Serial dilutions of 200 μM to 0.09 μM were prepared. Samples of 90 μl of human blood from healthy volunteers (Centre de Transfusion Sanguine de Genève) were pre-incubated in polypropylene Falcon tubes (BD 352063) for 20 minutes in a water bath at 37° C. with 10 μl of diluted compounds. For CRTH2 activation, 100 μl PGD2 (Cayman 12010) at 20 nM was added (10 nM final) to each tube and cells were maintained at 37° C. For negative control cells were treated with PBS. After 10 minutes, cell activation was stopped with 120 μl Formaldehyde 10% (4% final, Fluka 41650) and cells were rested for 10 minutes at room temperature. Fixed cells were transferred into polypropylene tubes and then treated for 1 hour in a water bath at 37° C. with 2 ml of Triton-Surfact-Amps X-100 (Pierce 28314) at 0.166% (0.13% Triton final). After several washes with PBS (red cells lysed progressively during washes, two washes are necessary), cells were analyzed by flow cytometry on a FACSCalibur. In one embodiment, the compounds of Formula (I) of the present invention are capable of blocking the cell shape change of eosinophils induced by PGD2 in Whole Blood.

CRTH2 [3] = target: T1, CRTH2 (Homo sapiens, UniProt Q9Y5Y4); assay: Radioligand binding Scintillation Proximity Assay ([3H]PGD2, hCRTH2-CHO cell membranes); parameters: host or cells: CHO cells; conditions: 1.5 nM [3H]PGD2, hCRTH2-CHO cell membranes, SPA
T1 sequence (Q9Y5Y4 1-395): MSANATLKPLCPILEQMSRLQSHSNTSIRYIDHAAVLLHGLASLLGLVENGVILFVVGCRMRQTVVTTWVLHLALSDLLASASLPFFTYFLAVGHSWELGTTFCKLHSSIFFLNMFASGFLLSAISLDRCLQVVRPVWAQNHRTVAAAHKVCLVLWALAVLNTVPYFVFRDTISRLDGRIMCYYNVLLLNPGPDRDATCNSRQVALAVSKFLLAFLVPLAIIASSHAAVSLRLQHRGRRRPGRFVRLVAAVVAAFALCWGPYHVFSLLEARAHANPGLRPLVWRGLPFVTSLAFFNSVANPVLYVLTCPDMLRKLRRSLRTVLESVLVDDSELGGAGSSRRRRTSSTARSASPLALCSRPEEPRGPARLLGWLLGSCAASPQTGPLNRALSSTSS
Summary of the method: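 SPA competition binding at room temperature, 90 min with agitation: 1.5 nM [3H]PGD2, 10-50 μg/ml hCRTH2-CHO membrane protein, WGA SPA beads, HEPES pH 7.4 with 10 mM MnCl2, 1% DMSO. Non-specific binding defined with 10 μM PGD2; scintillation counting.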

CRTH2 [4] = target: T1, CRTH2; assay: [35S]GTPγS binding assay (CHO-CRTH2 cell membranes); format: biochemical; parameters: expressed in transfected cells; host or cells: CHO-CRTH2 cells; conditions: for IC50: antagonist mode, fixed concentration of PGD2 (EC80)
Method: Adherent CHO cells expressing hCRTH2 (Euroscreen, Belgium) were cultured in 225 cm^2 cell culture flasks (Corning, USA) in 30 ml of medium. After two rinses of phosphate buffered saline (PBS), cells were harvested in 10 ml of PBS containing 1 mM EDTA, centrifuged at 500×g for 5 min at 4° C. and frozen at −80° C. The pellet was re-suspended in 50 mM Tris-HCl, pH 7.4, 2 mM EDTA, 250 mM Sucrose, containing protease inhibitor cocktail tablets, (Complete EDTA-free, Roche, Germany) and incubated 30 min at 4° C. Cells were disrupted by nitrogen cavitation (Parr Instruments, USA) at 4° C. (800 p.s.i. for 30 min), and centrifuged at 500×g for 10 min at 4° C. Pellet containing nuclei and cellular debris was discarded and supernatant was centrifuged 60 min at 4° C. at 45000×g. Membrane pellet was re-suspended in storage buffer (10 mM HEPES/KOH pH 7.4, 1 mM EDTA, 250 mM sucrose, protease inhibitor cocktail tablets) using Dounce homogenization and frozen in liquid nitrogen, and stored at −80° C.
The [^35S]GTPγS assay measures the increase in guanine nucleotide exchange at G-proteins in cell membranes, resulting from agonist (PGD2) binding to CRTH2. This process can be monitored in vitro by incubating cell membranes containing G-proteins and CRTH2 with GDP and [^35S]GTPγS, a radiolabeled, hydrolysis-resistant analogue of GTP (see, Harrison et al., Life Sciences 74, 489-508, 2003). The addition of a Compounds of Formula (I) results in binding to CRTH2 and thus in an inhibition of agonist binding, which can be monitored as inhibition of the stimulation of GTP/GDP exchange.
Briefly, Compounds of Formula (I) are incubated in 96-well scintillating white polystyrene plates (Perkin Elmer, USA) in a final volume of 200 μl containing 20 mM HEPES/KOH pH 7.4, 3 mM MgCl2, 10 μg/ml Saponin, 5 μM GDP, 75 mM NaCl and 2% of dimethylsulphoxide (DMSO). Reaction is triggered by the addition of 5-10 μg of CHO-CRTH2 cell membranes and 0.15 nM [^35S]GTPγS. After 60 min incubation at 30° C., reaction is stopped by centrifugation at 700×g, at 4° C. for 10 minutes and supernatant is removed. The radioactivity coming from the [^35S]GTPγS bound on centrifuged cell membranes is recorded using a 1450 Micro-beta scintillation counter. For IC50 determination, increasing concentrations of compounds are incubated in presence of a fixed concentration of PGD2 (EC80). For EC50 measurements, compounds are incubated without addition of PGD2. Basal [^35S]GTPγS activity is determined without addition of any ligands or compounds. 100% [^35S]GTPγS activity is measured by the addition of 1 μM of PGD2.

CRTH2 [5] = target: T1, CRTH2; assay: Cellular Dielectric Spectroscopy (CHO-CRTH2 cells); format: cell-based; parameters: expressed in transfected cells; host or cells: CHO-CRTH2 cells; conditions: for IC50: antagonist mode, fixed concentration of PGD2 (EC80); for EC50 / Emax: partial agonists, agonist activity without PGD2
Method: Cellular Dielectric Spectroscopy (CDS) is a label-free technology based on the measurement of complex impedance changes (delta Z or dZ). Impedance (Z) is related to the ratio of voltage to current as described by Ohm's law (Z=V/I). In order to measure the changes in impedance that occur in response to receptor stimulation, mammalian cells are seeded onto a custom 96-well microliter plate that contains electrodes at the bottom of each well. Key contributors to the impedance measurements are changes in cell-substrate adherence, changes in cell shape and volume, and changes in cell-cell interactions. These factors individually or collectively affect the flow of current, influencing the magnitude and characteristics of the signal measured. G-protein coupled receptors ligand-induced activity can be measured using this technology and specific G protein coupling can be identified. Activities of reference agonist and antagonist molecules of CRTH2 have been measured using this assay and similar results were obtained compared to different functional assays.
CHO-CRTH2 cells are cultured in HAM's F12 (Lonza, Switzerland) supplemented with 10% foetal calf serum (PAA, Australia) and 400 μg/ml Geneticin. 100000 cells/well are seeded in standard 96W Microplates (MDS Analytical Technologies) and incubated at 37° C. in 5% CO2 for 24 hours. Cells are washed twice with 135 μl of cell key buffer (Hank's Balanced Salt Solution 1× (HBSS) (Invitrogen) supplemented with 10 mM HEPES pH 7.4 in presence of 1% DMSO). For EC50 determination. 15 μl of increasing concentration of Compounds of Formula (I) diluted in cell key buffer are added to the cells and agonist activity is then recorded for 25 minutes. […] Results are expressed as the amplitude between the highest and the lowest signal produced (max-min). Basal and maximum activities are measured, respectively in absence or presence of PGD2 (EC80).

| SMILES | IC50 [2] | IC50 (CRTH2 [3]) | IC50 (CRTH2 [4]) | IC50 (CRTH2 [5]) | further results |
| --- | --- | --- | --- | --- | --- |
| C[C@@H]1C[C@H]2[C@@H]3CCC4=CC(=O)C=C[C@]4(C)[C@@]3(F)[C@@H](O)C[C@]2(C)[C@@]1(O)C(=O)CO [Dexamethasone] |  |  |  |  | % inhibition eosinophils (mean ± s.e.m.) [1]: 90 ± 10%; % inhibition total cells (mean ± s.e.m.) [1]: 88 ± 11% |
| O=C(O)COc1ccc(Cl)cc1C#Cc1ccc(CO)cc1F [Example 26, (4-chloro-2-{[2-fluoro-4-(hydroxymethyl)phenyl]ethynyl}phenoxy)acetic acid] | 679 nM | 28 nM | 140 nM |  |  |
| Cc1ccc(S(C)(=O)=O)cc1C#Cc1cc(Cl)ccc1OCC(=O)O [Example 33, (4-chloro-2-{[2-methyl-5-(methylsulfonyl)phenyl]ethynyl}phenoxy)acetic acid] | 64 nM | 9 nM |  |  |  |
| CS(=O)(=O)c1ccc(F)c(C#Cc2cc(Cl)ccc2OCC(=O)O)c1 [Example 48, (4-chloro-2-{[2-fluoro-5-(methylsulfonyl)phenyl]ethynyl}phenoxy)acetic acid] | 95 nM | 9 nM | 15 nM | 9 nM | EC50 (CRTH2 [5]): 1 nM; Emax (CRTH2 [5]): 12% |
| CCCc1ccc(S(C)(=O)=O)cc1C#Cc1cc(Cl)ccc1OCC(=O)O [Example 49, (4-chloro-2-{[5-(methylsulfonyl)-2-propylphenyl]ethynyl}phenoxy)acetic acid] | 1190 nM | 11 nM |  |  |  |
| CCCc1ccc(S(C)(=O)=O)cc1C#Cc1cc(C#N)ccc1OCC(=O)O [Example 56, (4-cyano-2-{[5-(methylsulfonyl)-2-propylphenyl]ethynyl}phenoxy)acetic acid] |  | 30 nM | 49 nM | 53 nM |  |
| CS(=O)(=O)c1ccc(F)c(C#Cc2cc(C#N)ccc2OCC(=O)O)c1 [Example 58, (4-cyano-2-{[2-fluoro-5-(methylsulfonyl)phenyl]ethynyl}phenoxy)acetic acid] | 95 nM | 14 nM | 34 nM |  | EC50 (CRTH2 [5]): 6 nM; Emax (CRTH2 [5]): 32% |
| CS(=O)(=O)c1ccc(Cl)c(C#Cc2cc(Cl)ccc2OCC(=O)O)c1 [Example 59, (4-chloro-2-{[2-chloro-5-(methylsulfonyl)phenyl]ethynyl}phenoxy)acetic acid] |  | 6 nM | 6 nM | 14 nM |  |
| Cc1ccc(S(=O)(=O)CC(C)C)cc1C#Cc1cc(C#N)ccc1OCC(=O)O [Example 65, (4-cyano-2-{[5-(isobutylsulfonyl)-2-methylphenyl]ethynyl}phenoxy)acetic acid] | 123 nM | 9 nM |  |  |  |
| Cc1ccc(S(=O)(=O)N(C)C)cc1C#Cc1cc(Cl)ccc1OCC(=O)O [Example 83, [4-chloro-2-({5-[(dimethylamino)sulfonyl]-2-methylphenyl}ethynyl)phenoxy]acetic acid] | 77 nM | 7 nM |  |  |  |
| Cc1ccc(S(=O)(=O)c2ccccc2)cc1C#Cc1cc(Cl)ccc1OCC(=O)O [Example 95, (4-chloro-2-{[2-methyl-5-(phenylsulfonyl)phenyl]ethynyl}phenoxy)acetic acid] |  | 9 nM | 10 nM | 84 nM | Emax (CRTH2 [4]; inverse agonists, 100% of Emax = activity with 1 μM PGD2): -17% |
| CCc1ccc(S(C)(=O)=O)cc1C#Cc1cc(Cl)ccc1OCC(=O)O [Example 100, (4-chloro-2-{[2-ethyl-5-(methylsulfonyl)phenyl]ethynyl}phenoxy)acetic acid] | 100 nM | 3 nM |  | 23 nM |  |
| COCCN(C)S(=O)(=O)c1ccc(C)c(C#Cc2cc(Cl)ccc2OCC(=O)O)c1 [Example 109, {4-chloro-2-[(5-{[(2-methoxyethyl)(methyl)amino]sulfonyl}-2-methylphenyl)ethynyl]phenoxy}acetic acid] | 77 nM | 5 nM |  |  |  |
| COCCNS(=O)(=O)c1ccc(C)c(C#Cc2cc(Cl)ccc2OCC(=O)O)c1 [Example 117, {4-chloro-2-[(5-{[(2-methoxyethyl)amino]sulfonyl}-2-methylphenyl)ethynyl]phenoxy}acetic acid] | 88 nM | 5 nM |  |  |  |
